Results taken from patent US12559529B2, “NPY2 receptor agonists” (Boehringer Ingelheim International GmbH, priority 2019, dated 2026).
*1 amine or outer side, *2 acyl side, *3 side chain or, on linkers, in order; H or OH if unused. Where a SMILES comes first, the peptide text is derived from it. Side-chain parts run from the residue outwards. The star is where a group is joined. C18 diacid = O=C(O)CCCCCCCCCCCCCCCCC(=O)*; γGlu = O=C(O)[C@H](CCC(=O)[*:2])N[*:1]; Isovaleryl = CC(C)CC(=O)*; AEEA = NCCOCCOCC(=O)O

Tests used:
[1] = biological target: T1, Human Neuropeptide Y2 Receptor (Homo sapiens, UniProt P49146); assay: Radioligand binding competition assay (RLB)
T1 construct: purchased CHEMICON HTS066M
T1 sequence (P49146 1-381): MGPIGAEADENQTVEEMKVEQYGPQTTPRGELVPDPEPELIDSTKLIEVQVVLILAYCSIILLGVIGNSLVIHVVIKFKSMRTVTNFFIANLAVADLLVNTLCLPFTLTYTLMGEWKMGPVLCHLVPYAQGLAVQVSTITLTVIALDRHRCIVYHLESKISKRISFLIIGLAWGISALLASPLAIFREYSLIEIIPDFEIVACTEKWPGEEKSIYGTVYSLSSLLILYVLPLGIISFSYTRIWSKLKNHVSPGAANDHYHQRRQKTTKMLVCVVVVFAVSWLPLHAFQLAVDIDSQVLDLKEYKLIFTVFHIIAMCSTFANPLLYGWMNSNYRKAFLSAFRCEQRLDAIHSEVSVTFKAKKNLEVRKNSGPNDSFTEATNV
Summary of the method: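 Membranes (0.5 μg/well) and test peptides, serially diluted from 1 mM DMSO stocks, were incubated 2 hours at room temperature in HEPES buffer pH 7.4 with Mg, Ca and ovalbumin.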

[2] = biological target: T1, Human Neuropeptide Y2 Receptor; assay: Activity (RLB) after incubation in solutions at different pH values; assay type: binding; settings: apparent Ki of filtrate after 2 h in buffer
Description: The filtration RLB assay was carried out in 96-well plates in a final volume of 100 μl per well. Freeze-dried test peptides were dissolved in 100% dimethyl sulfoxide (DMSO) to stock solutions of 1 mM and serial dilutions were performed in assay buffer (50 mM HEPES, 5 mM MgCl2, 1 mM CaCl2), pH 7.4) containing 0.2% ovalbumin. […] Next, 80 μL membranes (HTS066M, ChemiSCREEN™ Human Neuropeptide Y2 Receptor Membrane Preparation, CHEMICON) were added to each well to give a final protein concentration of 0.5 μg/well. The plates were sealed and incubated at room temperature for 2 hours in a plate shaker set at 400 rpm. The incubation was stopped by vacuum filtration onto 0.5% poly-ethylene amine (PEI) presoaked GF/C filters using a 96-well FilterMate™ harvester (Perkin Elmer) followed by four washes with 300 μl/well ice-cold wash buffer (50 mM HEPES, 500 mM NaCl, pH7.4). Filter plates were then dried for 60 min at room temperature and the bottom of the plates was sealed with backing tape UniFilter-96. Finally, 50 μl/well scintillation counter cocktail (Microscint20, Packard) was added and the radioactivity was counted in the Packard TopCount NXT scintillation counter. IC50 values (the half maximal inhibitory concentration of the agonist) were calculated by nonlinear regression analysis of sigmoidal dose-response curves.
Peptides (as TFA salts) were weighed out in a filter unit (Mini-UniPrep Syringeless Filter 0.45 μm, Whatman), and 0.1 M sodium diphosphate buffer at pH 6.4 or 7.4, respectively, or 0.2 M TRIS buffer at pH 8.3 was added to achieve 10 mg/ml final concentration. The peptide was (partially) dissolved by shaking the filter unit horizontally at approx. 400 rpm for 2 hours at room temperature. The sample was filtered to remove any insoluble particles.

[3] = Table 3, human 125I-PYY (1-36) 0.02 nM, Y2 receptor membranes, read-out: Ki
[4] = Table 8, from DMSO stock, read-out: hY2R RLB Ki (nM) DMSO
[5] = pH6.1-6.2, assumed 10 mg/ml, read-out: RLB 6 (pH6.1-6.2)

Ki [1, 3] | Ki [1, 4] | Ki [2, 5] | Ki ([2]; pH7.1-7.2, assumed 10 mg/ml, read-out: RLB 7 (pH7.1-7.2)) | Ki ([2]; pH8.1-8.2, assumed 10 mg/ml, read-out: RLB 8 (pH8.1-8.2)) | SMILES
0.29 nM | 4.6 nM | 3.8 nM | 4.4 nM | 2.3 nM | CC(C)CC(=O)N[C@@H](C)C(=O)N1CCC[C@H]1C(=O)N[C@@H](CCC(=O)O)C(=O)N[C@@H](CCCCNC(=O)COCCOCCNC(=O)COCCOCCNC(=O)CC[C@H](NC(=O)CCCCCCCCCCCCCCCCC(=O)O)C(=O)O)C(=O)N1CCC[C@H]1C(=O)N[C@@H](CCC(=O)O)C(=O)N[C@@H](C)C(=O)N1CCC[C@H]1C(=O)N[C@@H](C)C(=O)N[C@@H](CO)C(=O)N1CCC[C@H]1C(=O)N[C@@H](CCC(=O)O)C(=O)N[C@@H](CCC(=O)O)C(=O)N[C@@H](CC(C)C)C(=O)N[C@@H](CCC(N)=O)C(=O)N[C@@H](CCCNC(=N)N)C(=O)N[C@@H](Cc1ccc(O)cc1)C(=O)N[C@@H](Cc1ccc(O)cc1)C(=O)N[C@H](C(=O)N[C@@H](CCC(=O)O)C(=O)N[C@@H](CC(C)C)C(=O)N[C@@H](CCCNC(=N)N)C(=O)N[C@@H](Cc1c[nH]cn1)C(=O)N[C@@H](Cc1ccc(O)cc1)C(=O)N[C@@H](Cc1ccc(O)cc1)C(=O)N[C@@H](CC(N)=O)C(=O)N[C@@H](Cc1c[nH]c2ccccc12)C(=O)N[C@@H](CC(C)C)C(=O)N[C@H](C(=O)N[C@@H](CCCNC(=N)N)C(=O)N[C@@H](CCC(N)=O)C(=O)N[C@@H](CCCNC(=N)N)C(=O)N[C@@H](Cc1ccc(O)cc1)C(N)=O)[C@@H](C)O)C(C)C [Compound 29, N{alpha-4}-(3-methylbutanoyl)-N{epsilon-7}-[2-(2-{2-[2-(2-{2-[(4S)-4-carboxy-4-(17-carboxyheptadecanamido)butanamido]ethoxy}ethoxy)acetamido]ethoxy}ethoxy)acetamido]-[4A,7K,9E,10A,11P,18Q,22V,23E,28Y,30W,31L]hPYY (4-36)] (Isovaleryl-APEK([AEEA-AEEA-γGlu-C18 diacid])PEAPASPEELQRYYVELRHYYNWLTRQRY-NH2)
1.19 nM | 3.5 nM | 6.6 nM |  |  | CC[C@H](C)[C@H](NC(=O)[C@H](CCC(=O)O)NC(=O)[C@H](CCC(=O)O)NC(=O)[C@@H]1CCCN1C(=O)[C@H](CO)NC(=O)[C@H](C)NC(=O)[C@H](CC(=O)O)NC(=O)[C@H](CCC(=O)O)NC(=O)[C@H](CCC(=O)O)NC(=O)[C@@H]1CCCN1C(=O)[C@H](CCCCNC(=O)COCCOCCNC(=O)COCCOCCNC(=O)CC[C@H](NC(=O)CCCCCCCCCCCCCCCCC(=O)O)C(=O)O)NC(=O)[C@H](CCC(=O)O)NC(=O)[C@@H]1CCCN1C(=O)[C@H](C)NC(=O)CC(C)C)C(=O)N[C@@H](CCC(N)=O)C(=O)N[C@@H](CCCNC(=N)N)C(=O)N[C@@H](Cc1ccc(O)cc1)C(=O)N[C@@H](Cc1ccc(O)cc1)C(=O)N[C@H](C(=O)N[C@@H](CO)C(=O)N[C@@H](CC(C)C)C(=O)N[C@@H](CCCNC(=N)N)C(=O)N[C@@H](Cc1c[nH]cn1)C(=O)N[C@@H](Cc1ccc(O)cc1)C(=O)N[C@@H](Cc1ccc(O)cc1)C(=O)N[C@@H](CC(N)=O)C(=O)N[C@@H](Cc1c[nH]c2ccccc12)C(=O)N[C@@H](CC(C)C)C(=O)N[C@H](C(=O)N[C@@H](CCCNC(=N)N)C(=O)N[C@@H](CCC(N)=O)C(=O)N[C@@H](CCCNC(=N)N)C(=O)N[C@@H](Cc1ccc(O)cc1)C(N)=O)[C@@H](C)O)C(C)C [Compound 84, N{alpha-4}-(3-methylbutanoyl)-N{epsilon-7}-[2-(2-{2-[2-(2-{2-[(4S)-4-carboxy-4-(17-carboxyheptadecanamido)butanamido]ethoxy}ethoxy)acetamido]ethoxy}ethoxy)acetamido]-[4A,7K,9E,17I,18Q,22V,28Y,30W,31L]hPYY (4-36)]
